By EC50 is commonly meant the midpoint of the concentration-response curve. A higher EC50 goes with lower potency in that assay.

The target of the experiment is T1, ERR1 (also known as ERR-α or ERR-1) (Homo sapiens, UniProt P11474).
T1 sequence (P11474 193-421 limits assumed): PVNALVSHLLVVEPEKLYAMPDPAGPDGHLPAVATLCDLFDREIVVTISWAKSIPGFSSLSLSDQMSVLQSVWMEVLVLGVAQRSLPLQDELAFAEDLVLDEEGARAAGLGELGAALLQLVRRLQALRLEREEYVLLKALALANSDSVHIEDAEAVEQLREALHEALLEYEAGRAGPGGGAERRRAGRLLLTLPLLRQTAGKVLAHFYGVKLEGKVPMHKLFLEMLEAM
As to the kind of experiment: TR-FRET assay (disruption of co-activator peptide binding to ERR1 LBD). Format: biochemical. As to conditions: 6 nM 6His-ERR1LBD, 6 nM GST-SRC-2 peptide; average of 3 independent experiments. The protocol:
Time-Resolved Fluorescence Resonance Energy Transfer (TR-FRET) experiments were performed to examine the functional response of ERR1 (also known as ERR-α or ERR-1) ligands. The TR-FRET assay described herein relied on the conformation of ERR1 for binding to a co-activator peptide: when a test compound binds to ERR1 and alters its conformation, it can disrupt the binding of the co-activator peptide. The components of this homogeneous secondary assay included: the ^6His-tagged-ERR1LBD, a GST-labeled-hSRC2 co-activator polypeptide and a fluorescent donor/acceptor pair from CIS bio international htrf/bioassays (Bedford, Mass.) using both an α-GST Europium (Eu) Cryptate label and an α^6His-XL665 (allophycocyanin) fluorophore.
For TR-FRET measurements, the reaction was buffered in 25 mM Tris pH 8, 2.5 mM Hepes, 20 mM KCl, 1 mM DTT, and 0.05 mg/mL BSA (delipidated). The final concentrations of reagents were 6 nM of ERR1LBD, 6 nM GST-SRC-2 peptide, 30 nM Eu cryptate, and 7.5 nM a^6His-XL665. Reactions were allowed to reach equilibrium at 25° C. for 4-18 h before collecting data on the Analyst from LJL Biosystems (Molecular Devices Sunnyvale, Calif.). […] Dose response curves were fitted using a hyperbolic equation and the data reported is the average of 3 independent experiments.
`O=C(NN1C(=O)S/C(=C\c2ccc3c(cnn3Cc3ccc(C(F)(F)F)cc3C(F)(F)F)c2)C1=O)C1CC1` [Compound 372, N-[(5Z)-5-({1-[2,4-Bis(trifluoromethyl)benzyl]-1H-indazol-5-yl}methylidene)-2,4-dioxo-1,3-thiazolidin-3-yl]cyclopropanecarboxamide] returned an EC50 of 11 nM.

For the molecule `NC[C@H]1CC[C@H](CN2C(=O)S/C(=C\c3ccc4c(cnn4Cc4ccc(Cl)cc4C(F)(F)F)c3)C2=O)CC1` [Compound 106, (5Z)-3-{[trans-4-(Aminomethyl)cyclohexyl]methyl}-5-({1-[4-chloro-2-(trifluoromethyl)benzyl]-1H-indazol-5-yl}methylidene)-1,3-thiazolidine-2,4-dione], a half-maximal response (EC50) required 350 nM.

`CS(=O)(=O)NN1C(=O)S/C(=C\c2ccc3c(c2)c(I)nn3Cc2ccc(Cl)cc2C(F)(F)F)C1=O` [Compound 367, N-[(5Z)-5-({1-[4-Chloro-2-(trifluoromethyl)benzyl]-3-iodo-1H-indazol-5-yl}methylidene)-2,4-dioxo-1,3-thiazolidin-3-yl]methanesulfonamide] gave an EC50 of 4 nM.

`O=C1S/C(=C\c2ccc3c(cnn3Cc3ccc(Cl)cc3C(F)(F)F)c2)C(=O)N1C[C@@H]1C[C@@H](F)CN1` [Compound 184, (5Z)-5-({1-[4-Chloro-2-(trifluoromethyl)benzyl]-1H-indazol-5-yl}methylidene)-3-{[(2S,4R)-4-fluoropyrrolidin-2-yl]methyl}-1,3-thiazolidine-2,4-dione] showed an EC50 of 140 nM.

For the molecule `O=C1S/C(=C\c2ccc3c(cnn3Cc3ccc(Cl)cc3C(F)(F)F)c2)C(=O)N1CCN1CCC1` [Compound 120, (5Z)-3-(2-Azetidin-1-ylethyl)-5-({1-[4-chloro-2-(trifluoromethyl)benzyl]-1H-indazol-5-yl}methylidene)-1,3-thiazolidine-2,4-dione], the concentration giving a half-maximal response (EC50) turned out to be 220 nM.

`CCN1CC[C@@H](N2C(=O)S/C(=C\c3ccc4c(cnn4Cc4ccc(Cl)cc4C(F)(F)F)c3)C2=O)[C@H](F)C1` (single isomer, unassigned) [Compound 326, (5Z)-5-({1-[4-Chloro-2-(trifluoromethyl)benzyl]-1H-indazol-5-yl}methylidene)-3-[trans-1-ethyl-3-fluoropiperidin-4-yl]-1,3-thiazolidine-2,4-dione] displayed a half-maximal effective concentration (EC50) of 140 nM.

`O=C1S/C(=C\c2ccc3c(ccn3Cc3ccc(Cl)cc3C(F)(F)F)c2)C(=O)N1CCN1CCOCC1` [Compound 254, (5Z)-5-({1-[4-Chloro-2-(trifluoromethyl)benzyl]-1H-indol-5-yl}methylidene)-3-(2-morpholin-4-ylethyl)-1,3-thiazolidine-2,4-dione] displayed an EC50 of 320 nM.

`CN1CCC(CN2C(=O)S/C(=C\c3ccc4c(cnn4Cc4ccc(Cl)cc4C(F)(F)F)c3)C2=O)CC1` [Compound 134, (5Z)-5-({1-[4-Chloro-2-(trifluoromethyl)benzyl]-1H-indazol-5-yl}methylidene)-3-[(1-methylpiperidin-4-yl)methyl]-1,3-thiazolidine-2,4-dione]: a half-maximal response (EC50) required 45 nM.

The molecule `CCOc1nn(Cc2ccc(Cl)cc2C(F)(F)F)c2ccc(/C=C3\SC(=O)N(CCN4CCCC4)C3=O)cc12` [Compound 33, (5Z)-5-({1-[4-Chloro-2-(trifluoromethyl)benzyl]-3-ethoxy-1H-indazol-5-yl}methylidene)-3-(2-pyrrolidin-1-ylethyl)-1,3-thiazolidine-2,4-dione] yielded an EC50 of 185 nM. This EC50 lies about 4.1-fold higher than the previous one.

Turning to `COc1ccc(Cn2ncc3cc(/C=C4\SC(=O)N(CCN5CC[C@@H](F)C5)C4=O)ccc32)c(C(F)(F)F)c1` [Compound 13, (5Z)-3-{2-[(3R)-3-Fluoropyrrolidin-1-yl]ethyl}-5-[(1-{[4-(methyloxy)-2-(trifluoromethyl)phenyl]methyl}-1H-indazol-5-yl)methylidene]-1,3-thiazolidine-2,4-dione], a half-maximal effect (EC50) was put at 43 nM.

Molecule `O=C1S/C(=C\c2ccc3c(c2)nnn3Cc2ccc(Cl)cc2C(F)(F)F)C(=O)N1CCN1CCCC1` [Compound 258, (5Z)-5-({1-[4-Chloro-2-(trifluoromethyl)benzyl]-1H-benzotriazol-5-yl}methylidene)-3-(2-pyrrolidin-1-ylmethyl)-1,3-thiazolidine-2,4-dione] displayed an EC50 of 24 nM.

`CCN1C[C@@H](N2C(=O)S/C(=C\c3ccc4c(cnn4Cc4ccc(Cl)cc4C(F)(F)F)c3)C2=O)[C@@H](F)C1` (relative stereo) [Compound 324, (5Z)-5-({1-[4-Chloro-2-(trifluoromethyl)benzyl]-1H-indazol-5-yl}methylidene)-3-[cis-1-ethyl-4-fluoropyrrolidin-3-yl]-1,3-thiazolidine-2,4-dione] registered an EC50 of 33 nM. This EC50 and that of the molecule before are within 1.5-fold of each other.

Take `N=C(N)NOCCN1C(=O)S/C(=C\c2ccc3c(ccn3Cc3ccc(Cl)cc3C(F)(F)F)c2)C1=O` [Compound 257, 1-{2-[(5Z)-5-({1-[4-Chloro-2-(trifluoromethyl)benzyl]-1H-indol-5-yl}methylidene)-2,4-dioxo-1,3-thiazolidin-3-yl]ethoxy}guanidine]: the EC50 was determined as 74 nM.

On to `O=C1S/C(=C\c2ccc3c(cnn3Cc3ccc(Cl)cc3C(F)(F)F)c2)C(=O)N1CCN1CC(O)C1` [Compound 115, (5Z)-5-({1-[4-Chloro-2-(trifluoromethyl)benzyl]-1H-indazol-5-yl}methylidene)-3-[2-(3-hydroxyazetidin-1-yl)ethyl]-1,3-thiazolidine-2,4-dione], for which the EC50 was 130 nM.

The molecule `N[C@H]1CCC[C@H](CN2C(=O)S/C(=C\c3ccc4c(cnn4Cc4ccc(Cl)cc4C(F)(F)F)c3)C2=O)C1` [Compound 105, (5Z)-3-{[(1S,3S)-3-Aminocyclohexyl]methyl}-5-({1-[4-chloro-2-(trifluoromethyl)benzyl]-1H-indazol-5-yl}methylidene)-1,3-thiazolidine-2,4-dione] registered an EC50 of 68 nM.

The molecule `O=C(O)C(Cc1c[nH]cn1)N1C(=O)S/C(=C\c2ccc3c(cnn3Cc3ccc(Cl)cc3C(F)(F)F)c2)C1=O` (stereo not shown) [Compound 229, 2-[(5Z)-5-({1-[4-Chloro-2-(trifluoromethyl)benzyl]-1H-indazol-5-yl}methylidene)-2,4-dioxo-1,3-thiazolidin-3-yl]-3-(1H-imidazol-4-yl)propanoic acid] came in with an EC50 of 76 nM.

`COc1ccc(Cn2ncc3cc(/C=C4\SC(=O)N(C5CCNCC5)C4=O)ccc32)c(C(F)(F)F)c1` [Compound 26, (5Z)-5-({1-[4-Methoxy-2-(trifluoromethyl)benzyl]-1H-indazol-5-yl}methylidene)-3-piperidin-4-yl-1,3-thiazolidine-2,4-dione] displayed a half-maximal effective concentration (EC50) of 67 nM.

`O=C1S/C(=C\c2ccc3c(cnn3Cc3ccc(Cl)cc3C(F)(F)F)c2)C(=O)N1N1CCN(CCO)CC1` [Compound 354, (5Z)-5-({1-[4-Chloro-2-(trifluoromethyl)benzyl]-1H-indazol-5-yl}methylidene)-3-[4-(2-hydroxyethyl)piperazin-1-yl]-1,3-thiazolidine-2,4-dione] returned a concentration for a half-maximal effect (EC50) of 17 nM. This EC50 is about 3.9-fold lower than that of the molecule before.

As for `CC(=O)Nc1nc(C)c(S(=O)(=O)NCCN2C(=O)S/C(=C\c3ccc4c(cnn4Cc4ccc(Cl)cc4C(F)(F)F)c3)C2=O)s1` [Compound 420, N-[5-({2-[(5Z)-5-({1-[4-Chloro-2-(trifluoromethyl)benzyl]-1H-indazol-5-yl}methylidene)-2,4-dioxo-1,3-thiazolidin-3-yl]ethyl}sulfamoyl)-4-methyl-1,3-thiazol-2-yl]acetamide], the midpoint of the response, the EC50, lay at 28 nM.

For the origin of these results see US8796256B2 (Janssen Pharmaceutica NV, priority 2010, dated 2014).
